Assay results as given in patent publication US7087584B2, “Detection and modulation of IAPs and NAIP for the diagnosis and treatment of proliferative disease” (Aegera Therapeutics Inc., priority 1997, dated 2006).

Key:
[1] = tested on: Cisplatin-sensitive (OV2008) human ovarian epithelial cells; experiment: Apoptosis (nuclear staining, DNA ladders, TUNEL) in cisplatin-sensitive ovarian cancer cells; type: cell-based; conditions: for incidence of apoptosis: cisplatin 0-30 μM or taxol 0-1.0 μM, up to 48 hours
Description: (§1) Cisplatin-sensitive (OV2008) and -resistant (C13) human ovarian epithelial cells were cultured in a chemically-defined medium at 37° C. for up to 48 hours in the presence or absence of TGFβ (20 ng/ml), taxol (0–1.0 μM) or cisplatin (0–30 μM). At the end of the culture period, cells were either fixed for immunocytochemistry and TUNEL analyses, or snap frozen for subsequent extraction for IAP mRNA and proteins analyses.
(§2) Human ovarian epithelial cancer cells were fixed (4% formalin in PBS; 10 min. RT), washed in PBS, resuspended in Hoescht 33248 stain (0.1 μg/ml PBS, 10 min) washed again and spotted onto slides for microscopy. Nuclear staining was observed and photographed using a Zeiss fluorescent microscope equipped with an FITC filter. Apoptotic cells were identified by typical nuclear morphology, and counted using randomly selected fields and numbered photographic slides to avoid bias during counting.
(§3) Cellular DNA was extracted using the Qiagen Blood Amt kit. DNA was quantified by ethidium bromide fluorescence. DNA (0.5 μg) was then end labelled by incubating (20 min, RT) with Klenow enzyme (2 U in 10 mM Tris+5 mM MgCl2) and 0.1 μCi [α32P]dCTP. Unincorporated nucleotides were removed with the Qiagen nucleotide removal kit and samples were resolved by Tris-acetate-EDTA agarose (1.8%) gel electrophoresis. The gel was then dried (2 hr, no heat) and exposed to a Bio-Rad phosphoimager screen to densitometrically quantify low molecular weight DNA (<15 kBp) and subsequently to x-ray film at −80° C.
To identify cell death using the in situ cell death detection kit (Boehringer-Mannheim), slides prepared for histology were treated (20 min. 37° C.) with terminal tranferase in the presence of FITC-conjugated dUTP.

[2] = tested on: XIAP protein in OV2008 cells; experiment: Western blot for XIAP protein in OV2008 cells; type: cell-based, human
Description: as §1
(§4) Protein extracts were prepared from human surface epithelial cancer cells sonicated (8 s/cycle, 3 cycles) on ice in sucrose buffer (0.25 M sucrose, 0.025 M NaCl, 1 mM EGTA and 15 mM Tris-HCl pH 6.8, supplemented with 1 mM PMSF, 2 μg/ml of leupeptin and 5 μg/ml of aprotinin. The sonicates were centrifuged at 13,000×g for 10 min, the supernatants were collected and stored at −20° C. until electrophoretic analyses were performed. Protein concentration was determined by Bio-Rad Protein Assay. Proteins (10–30 μg) were resolved by one-dimensional SDS-PAGE, and electrophoretically transferred to nitrocellulose membrane. Membranes were blocked with 5% non-fat milk, and subsequently incubated with rabbit polyclonal antibody for IAP anti-human Hiap-2ΔE(960529; 1:1000 dilution), anti-human NAIP E1.0 (951015; 1:1000 dilution) or anti-human Xiap (1:1000 dilution) diluted in TBST (10 mM Tris-buffered saline, 0.1% Tween-20, pH 7.5) containing 5% milk. […]

[3] = tested on: XIAP protein in C13 cells; experiment: Western blot for XIAP protein in C13 cells; type: cell-based, human
Description: as §1, §4

[4] = tested on: HIAP-2 protein in OV2008 cells; experiment: Western blot for HIAP-2 protein in OV2008 cells; type: cell-based, human
Description: as §1, §4

[5] = tested on: HIAP-2 protein in C13 cells; experiment: Western blot for HIAP-2 protein in C13 cells; type: cell-based, human
Description: as §1, §4

[6] = tested on: HIAP-2 mRNA in OV2008 cells; experiment: Northern blot for HIAP-2 mRNA in OV2008 cells; type: cell-based, human
Description: as §1
(§5) Total RNA from ovarian surface epithelial cancer cells by using RNeasy Kit (Qiagen). The RNA samples (10–15 μg) were quantified spectrophotometrically and size-fractioned by electrophoresis on formaldehyde-agarose gels (1.1%) containing 1 μg/ml ethidium bromide to confirm even loading of RNA samples and adequate separation of 28S and 18S ribosomal bands. The RNAs bands were blotted onto a nylon membrane and cross-linked by UV light. Membranes were prehybridized in 50% formamide, saline sodium citrate (SSC; 750 mM NaCl, 75 mM Na citrate), 1×Denhardt's solution, 1% SDS, 4 mM EDTA and 100 μg/ml sheared salmon sperm DNA for 4 h at 42° C. Hybridization was performed overnight at 42° C. with 20 million cpm of ^32P-labelled IAP cDNA probes (rat Naip, rat Xiap or human Hiap-2) added to the prehybridization buffer. […] Data were normalized by the respective 28S and expressed as a percentage of the control (defined as 100%).

[7] = tested on: HIAP-2 mRNA in C13 cells; experiment: Northern blot for HIAP-2 mRNA in C13 cells; type: cell-based, human
Description: as §1, §5

[8] = tested on: HeLa cells; experiment: Apoptosis and 26 kDa xiap cleavage product (Western blot) in HeLa cells; type: cell-based, human; conditions: 18 hours; for 26 kDa xiap cleavage product: HeLa cells, cycloheximide 20 μg/ml, TNFα 1,000 U/ml, anti-Fas antibody 1 μg/ml; for apoptosis of HeLa cells: cycloheximide 20 μg/ml or TNFα 1,000 U/ml alone
Description: A 26 kDa xiap-reactive band was also observed under the following experimental conditions. Jurkat cells (a transformed human T cell line) were induced to undergo apoptosis by exposure to an anti-Fas antibody (1 μg/ml). Identical cultures of Jurkat cells were exposed either to: (1) anti-Fas antibody and cycloheximide (20 μg/ml), (2) tumor necrosis factor alpha (TNF-α, at 1,000 U/ml), or (3) TNF-α and cycloheximide (20 μg/ml). All cells were harvested 6 hours after treatment began. In addition, as a negative control, anti-Fas antibody was added to an extract after the cells were harvested. The cells were harvested in SDS sample buffer, electrophoresed on a 12.5% SDS polyacrylamide gel, and electroblotted onto PVDF membranes using standard methods. The membranes were immunostained with a rabbit polyclonal anti-xiap antibody at 1:1000 for 1 hour at room temperature. Following four 15 minute washes, a goat anti-rabbit antibody conjugated to horse-radish peroxidase was applied at room temperature for 1 hour. Unbound secondary antibody was washed away, and chemiluminescent detection of xiap protein was performed. […] In addition, a novel, approximately 26 kDa xiap-reactive band was also observed in apoptotic cell extracts, but not in the control, untreated cell extracts (FIG. 13).
Cleavage of xiap occurs in a variety of cell types, including other cancer cell lines such as HeLa. […] HeLa cells were treated with either: (1) cyclohexamide (20 μg/ml), (2) anti-Fas antibody (1 μg/ml), (3) anti-Fas antibody (1 μg/ml) and cyclohexamide (20 μg/ml), (4) TNFα (1,000 U/ml), or (5) TNFα (1,000 U/ml) and cyclohexamide (20 μg/ml). All cells were harvested 18 hours after treatment began. As above, anti-Fas antibody was added to an extract after the cells were harvested. HeLa cells were harvested, and the Western blot was probed under the same conditions as used to visualize xiap-reactive bands from Jurkat cell samples. A 26 kDa xiap band was again seen in the apoptotic cell preparations (FIG. 14). Furthermore, the degree of xiap cleavage correlated positively with cellular exposure to apoptotic triggers.
The time course over which the 26 kDa cleavage product accumulates was examined by treating HeLa and Jurkat cells with anti-Fas antibody (1 μg/ml) and harvesting them either immediately, or 1, 2, 3, 5, 10, or 22 hours after treatment. Protein extracts were prepared and Western blot analysis was performed as described above.

[9] = tested on: Cisplatin-resistant (C13) human ovarian epithelial cells; experiment: Apoptosis (nuclear staining, DNA ladders, TUNEL) in cisplatin-resistant ovarian cancer cells; type: cell-based; conditions: TGFβ 20 ng/ml
Description: as §1, §2
as §3, with “Unincorporated nucleotides were removed with the Qiagen nucleotide removal kit and samples were resolved by Tris-acetate-EDTA agarose (1.8%) gel electrophoresis.” left out, “C. […]” for “C.”

N.N.[Cl][Pt][Cl] [Cisplatin, cisplatin]
incidence of apoptosis [1]: concentration-dependent increase

CC(=O)O[C@H]1C(=O)[C@@]2(C)[C@H]([C@H](OC(=O)c3ccccc3)[C@]3(O)C[C@H](OC(=O)[C@H](O)[C@@H](NC(=O)c4ccccc4)c4ccccc4)C(C)=C1C3(C)C)[C@]1(OC(C)=O)CO[C@@H]1C[C@@H]2O [Taxol]
incidence of apoptosis [1]: induced apoptosis
XIAP protein level ([2]; OV2008 cells, Taxol 0.04-1.0 μM, concentration-dependent, more pronounced than in resistant cells): decreased
XIAP protein level ([3]; C13 cells, Taxol 0.04-1.0 μM, concentration-dependent, less pronounced than in sensitive cells): decreased
content of approx. 45 kDa immunoreactive fragment of HIAP-2 ([4]; Taxol): decreased
HIAP-2 protein level ([4]; Taxol 0.04-1.0 μM, concentration-dependent, more pronounced than in resistant cells): decreased
content of approx. 45 kDa immunoreactive fragment of HIAP-2 ([5]; Taxol): increased
HIAP-2 protein level ([5]; Taxol 0.04-1.0 μM, concentration-dependent, less pronounced than in sensitive cells): decreased
suppression of HIAP-2 mRNA abundance ([6]; cisplatin-sensitive cells, Taxol 0.2 μM): approx. 80%
suppression of HIAP-2 mRNA abundance ([7]; cisplatin-resistant cells, Taxol 0.2 μM): ineffective

C[C@@H]1C[C@@H]([C@H](O)CC2CC(=O)NC(=O)C2)C(=O)[C@@H](C)C1 [cycloheximide]
26 kDa xiap cleavage product [8]: little cleavage product
apoptosis of HeLa cells [8]: only minor apoptosis

TGFβ: TGFβ (20 ng/ml) added to ovarian cancer cell cultures
induction of apoptosis ([1]; TGFβ 20 ng/ml): induced apoptosis
induction of apoptosis [9]: not in C13
influence on Xiap protein content ([2]; cisplatin-sensitive cells, TGFβ 20 ng/ml): markedly suppressed
influence on Xiap protein content ([3]; cisplatin-resistant cells, TGFβ 20 ng/ml): only marginal
HIAP-2 mRNA ([6]; OV2008 cells, TGFβ 20 ng/ml): decreased
HIAP-2 mRNA ([7]; C13 cells, TGFβ 20 ng/ml): not C13

TNFα
26 kDa xiap cleavage product [8]: little cleavage product
apoptosis of HeLa cells [8]: only minor apoptosis
